From ChEMBL document CHEMBL5380863 (J Med Chem, 2023)
pIC50: −log10 of the molar value.

Key:
[1] = system: HL-60; experiment: cells; type: functional, cell-based; details: Homo sapiens, HL-60, 72 h
[2] = system: MCF7; experiment: cells; type: functional, cell-based; details: Homo sapiens, MCF7, 72 h
[3] = system: PC-3; experiment: cells; type: functional, cell-based; details: Homo sapiens, PC-3, 72 h
[4] = system: K562; experiment: cells; type: functional, cell-based; details: Homo sapiens, K562, 72 h
[5] = system: HEL; experiment: cells; type: functional, cell-based; details: Homo sapiens, 72 h
[6] = system: A549; experiment: cells; type: functional, cell-based; details: Homo sapiens, A549, 72 h
[7] = system: HeLa; experiment: cells; type: functional, cell-based; details: Homo sapiens, 72 h
[8] = target: Histone deacetylase 8 (Homo sapiens, UniProt Q9BY41)
[9] = target: Non-receptor tyrosine-protein kinase TYK2 (Homo sapiens, UniProt P29597)
Chain of Non-receptor tyrosine-protein kinase TYK2 (P29597 whole entry): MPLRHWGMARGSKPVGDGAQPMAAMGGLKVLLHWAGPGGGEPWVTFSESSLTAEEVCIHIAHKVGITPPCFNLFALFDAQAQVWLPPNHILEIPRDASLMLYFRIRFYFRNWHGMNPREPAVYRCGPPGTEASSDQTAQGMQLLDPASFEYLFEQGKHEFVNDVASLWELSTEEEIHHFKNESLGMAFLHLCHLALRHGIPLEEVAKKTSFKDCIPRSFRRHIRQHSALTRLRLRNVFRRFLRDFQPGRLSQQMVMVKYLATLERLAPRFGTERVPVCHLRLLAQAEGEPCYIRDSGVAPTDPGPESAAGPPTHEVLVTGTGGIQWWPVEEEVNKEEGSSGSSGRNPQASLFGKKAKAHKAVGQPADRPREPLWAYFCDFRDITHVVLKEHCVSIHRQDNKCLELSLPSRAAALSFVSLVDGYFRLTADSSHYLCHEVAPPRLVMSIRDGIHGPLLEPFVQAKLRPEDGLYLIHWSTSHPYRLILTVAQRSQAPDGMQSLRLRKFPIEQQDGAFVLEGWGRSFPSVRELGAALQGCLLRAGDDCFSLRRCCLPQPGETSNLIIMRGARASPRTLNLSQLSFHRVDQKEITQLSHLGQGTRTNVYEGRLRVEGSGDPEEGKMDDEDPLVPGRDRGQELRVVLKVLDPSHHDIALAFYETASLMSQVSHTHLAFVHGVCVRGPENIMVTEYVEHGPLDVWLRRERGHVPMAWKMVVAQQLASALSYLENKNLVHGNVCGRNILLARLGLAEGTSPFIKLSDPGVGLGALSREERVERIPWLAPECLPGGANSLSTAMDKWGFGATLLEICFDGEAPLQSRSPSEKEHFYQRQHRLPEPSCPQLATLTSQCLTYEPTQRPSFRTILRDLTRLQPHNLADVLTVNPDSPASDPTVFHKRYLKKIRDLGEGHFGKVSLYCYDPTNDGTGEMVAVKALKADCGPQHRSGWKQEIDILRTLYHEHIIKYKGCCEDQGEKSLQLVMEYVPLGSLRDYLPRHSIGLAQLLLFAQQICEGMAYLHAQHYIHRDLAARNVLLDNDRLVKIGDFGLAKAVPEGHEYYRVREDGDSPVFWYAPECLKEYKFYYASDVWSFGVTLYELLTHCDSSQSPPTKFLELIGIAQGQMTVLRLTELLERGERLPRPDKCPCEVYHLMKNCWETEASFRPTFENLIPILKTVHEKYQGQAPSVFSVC

[10] = in vivo; details: Sprague-Dawley, rat, po, 15 mg/kg
[11] = in vivo; details: Sprague-Dawley, rat, po, 15 mg/kg; remark: listed apart in the source
[12] = target: Histone deacetylase 9 (Homo sapiens, UniProt Q9UKV0)
[13] = target: T1, Tyrosine-protein kinase JAK1 (Homo sapiens, UniProt P23458)
T1 sequence (P23458 whole entry): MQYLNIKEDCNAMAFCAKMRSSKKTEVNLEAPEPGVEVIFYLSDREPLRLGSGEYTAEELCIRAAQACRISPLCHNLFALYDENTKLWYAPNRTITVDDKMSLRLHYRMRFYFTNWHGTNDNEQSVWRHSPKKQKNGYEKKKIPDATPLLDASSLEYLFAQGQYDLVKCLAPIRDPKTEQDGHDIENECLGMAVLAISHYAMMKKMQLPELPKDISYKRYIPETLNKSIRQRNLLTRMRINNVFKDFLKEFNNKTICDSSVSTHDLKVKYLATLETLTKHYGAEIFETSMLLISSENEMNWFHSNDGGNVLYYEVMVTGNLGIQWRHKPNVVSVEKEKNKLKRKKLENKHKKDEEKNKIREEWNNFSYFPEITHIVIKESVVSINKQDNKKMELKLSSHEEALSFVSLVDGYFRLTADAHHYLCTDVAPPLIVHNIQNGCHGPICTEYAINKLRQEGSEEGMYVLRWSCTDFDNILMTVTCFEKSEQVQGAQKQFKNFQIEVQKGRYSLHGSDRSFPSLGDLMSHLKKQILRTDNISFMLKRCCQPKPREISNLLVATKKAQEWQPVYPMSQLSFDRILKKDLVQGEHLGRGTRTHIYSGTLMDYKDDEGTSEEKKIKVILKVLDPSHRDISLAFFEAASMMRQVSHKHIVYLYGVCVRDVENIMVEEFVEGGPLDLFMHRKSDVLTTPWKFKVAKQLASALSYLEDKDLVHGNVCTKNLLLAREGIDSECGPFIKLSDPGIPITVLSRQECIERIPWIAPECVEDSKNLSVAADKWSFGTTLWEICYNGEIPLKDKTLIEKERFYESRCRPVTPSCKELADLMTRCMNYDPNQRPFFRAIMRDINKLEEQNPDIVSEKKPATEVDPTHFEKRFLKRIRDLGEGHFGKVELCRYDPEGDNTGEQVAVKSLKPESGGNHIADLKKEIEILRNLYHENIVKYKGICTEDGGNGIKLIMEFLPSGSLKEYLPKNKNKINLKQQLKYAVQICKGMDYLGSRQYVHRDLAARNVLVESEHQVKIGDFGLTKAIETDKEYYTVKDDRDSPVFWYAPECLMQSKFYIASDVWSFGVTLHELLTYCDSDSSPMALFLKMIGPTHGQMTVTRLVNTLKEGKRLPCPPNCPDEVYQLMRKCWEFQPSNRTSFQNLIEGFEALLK

[14] = in vivo; details: Sprague-Dawley, rat, po, 15 mg/kg; remark: listed apart in the source
[15] = target: Protein deacetylase HDAC6 (Homo sapiens, UniProt Q9UBN7)
[16] = in vivo; details: Sprague-Dawley, rat, iv, 3 mg/kg
[17] = target: Tyrosine-protein kinase Fyn (Homo sapiens) (UniProt P06241); details: dose 500.0 nM
[18] = target: Histone deacetylase 7 (Homo sapiens, UniProt Q8WUI4)
Chain of Histone deacetylase 7 (Q8WUI4 whole entry): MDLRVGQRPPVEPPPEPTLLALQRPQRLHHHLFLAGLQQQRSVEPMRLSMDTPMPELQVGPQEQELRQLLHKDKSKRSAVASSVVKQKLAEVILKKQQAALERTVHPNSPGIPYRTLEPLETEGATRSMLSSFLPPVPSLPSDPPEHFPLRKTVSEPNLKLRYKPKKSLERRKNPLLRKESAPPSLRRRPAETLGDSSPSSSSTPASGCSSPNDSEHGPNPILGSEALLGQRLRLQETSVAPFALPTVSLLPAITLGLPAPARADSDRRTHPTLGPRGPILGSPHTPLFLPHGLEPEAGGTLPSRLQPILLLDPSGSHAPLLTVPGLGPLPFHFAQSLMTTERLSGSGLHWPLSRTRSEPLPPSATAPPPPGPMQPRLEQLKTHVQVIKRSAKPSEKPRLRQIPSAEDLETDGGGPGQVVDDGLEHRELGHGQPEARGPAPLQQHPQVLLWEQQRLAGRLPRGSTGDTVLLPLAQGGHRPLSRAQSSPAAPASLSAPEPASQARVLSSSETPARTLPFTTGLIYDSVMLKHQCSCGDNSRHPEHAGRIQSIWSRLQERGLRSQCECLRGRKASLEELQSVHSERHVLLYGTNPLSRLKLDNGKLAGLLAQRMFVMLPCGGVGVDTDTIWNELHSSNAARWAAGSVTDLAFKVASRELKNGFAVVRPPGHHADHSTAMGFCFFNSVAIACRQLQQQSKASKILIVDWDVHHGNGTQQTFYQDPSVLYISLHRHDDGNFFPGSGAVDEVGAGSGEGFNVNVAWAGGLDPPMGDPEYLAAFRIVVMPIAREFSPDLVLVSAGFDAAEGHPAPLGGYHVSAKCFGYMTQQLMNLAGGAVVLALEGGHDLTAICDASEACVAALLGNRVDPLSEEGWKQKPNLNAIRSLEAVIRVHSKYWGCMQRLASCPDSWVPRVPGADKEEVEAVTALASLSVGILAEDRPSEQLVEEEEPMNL

[19] = target: Histone deacetylase 4 (Homo sapiens, UniProt P56524)
[20] = target: Muscle, skeletal receptor tyrosine-protein kinase (Homo sapiens) (UniProt O15146); details: dose 500.0 nM
[21] = target: Histone deacetylase 1 (Homo sapiens, UniProt Q13547); type: cell-based, HeLa
Chain of Histone deacetylase 1 (Q13547 whole entry): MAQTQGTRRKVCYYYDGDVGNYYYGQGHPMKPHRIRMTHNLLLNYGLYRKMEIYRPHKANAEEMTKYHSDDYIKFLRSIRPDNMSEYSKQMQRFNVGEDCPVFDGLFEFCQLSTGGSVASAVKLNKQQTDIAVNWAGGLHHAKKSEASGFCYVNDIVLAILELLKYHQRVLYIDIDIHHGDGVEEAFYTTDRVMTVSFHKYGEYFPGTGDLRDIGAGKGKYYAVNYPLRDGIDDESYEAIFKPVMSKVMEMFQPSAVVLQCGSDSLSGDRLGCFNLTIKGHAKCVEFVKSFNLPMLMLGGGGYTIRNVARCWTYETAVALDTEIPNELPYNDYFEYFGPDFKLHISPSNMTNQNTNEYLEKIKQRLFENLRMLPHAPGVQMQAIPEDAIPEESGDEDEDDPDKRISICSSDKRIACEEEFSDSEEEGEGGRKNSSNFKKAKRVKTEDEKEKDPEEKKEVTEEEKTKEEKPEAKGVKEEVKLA

[22] = in vivo; details: Sprague-Dawley, rat, po, 15 mg/kg; remark: listed apart in the source
[23] = target: T2, Tyrosine-protein kinase JAK2 (Homo sapiens, UniProt O60674); details: dose 500.0 nM
T2 sequence (O60674 whole entry): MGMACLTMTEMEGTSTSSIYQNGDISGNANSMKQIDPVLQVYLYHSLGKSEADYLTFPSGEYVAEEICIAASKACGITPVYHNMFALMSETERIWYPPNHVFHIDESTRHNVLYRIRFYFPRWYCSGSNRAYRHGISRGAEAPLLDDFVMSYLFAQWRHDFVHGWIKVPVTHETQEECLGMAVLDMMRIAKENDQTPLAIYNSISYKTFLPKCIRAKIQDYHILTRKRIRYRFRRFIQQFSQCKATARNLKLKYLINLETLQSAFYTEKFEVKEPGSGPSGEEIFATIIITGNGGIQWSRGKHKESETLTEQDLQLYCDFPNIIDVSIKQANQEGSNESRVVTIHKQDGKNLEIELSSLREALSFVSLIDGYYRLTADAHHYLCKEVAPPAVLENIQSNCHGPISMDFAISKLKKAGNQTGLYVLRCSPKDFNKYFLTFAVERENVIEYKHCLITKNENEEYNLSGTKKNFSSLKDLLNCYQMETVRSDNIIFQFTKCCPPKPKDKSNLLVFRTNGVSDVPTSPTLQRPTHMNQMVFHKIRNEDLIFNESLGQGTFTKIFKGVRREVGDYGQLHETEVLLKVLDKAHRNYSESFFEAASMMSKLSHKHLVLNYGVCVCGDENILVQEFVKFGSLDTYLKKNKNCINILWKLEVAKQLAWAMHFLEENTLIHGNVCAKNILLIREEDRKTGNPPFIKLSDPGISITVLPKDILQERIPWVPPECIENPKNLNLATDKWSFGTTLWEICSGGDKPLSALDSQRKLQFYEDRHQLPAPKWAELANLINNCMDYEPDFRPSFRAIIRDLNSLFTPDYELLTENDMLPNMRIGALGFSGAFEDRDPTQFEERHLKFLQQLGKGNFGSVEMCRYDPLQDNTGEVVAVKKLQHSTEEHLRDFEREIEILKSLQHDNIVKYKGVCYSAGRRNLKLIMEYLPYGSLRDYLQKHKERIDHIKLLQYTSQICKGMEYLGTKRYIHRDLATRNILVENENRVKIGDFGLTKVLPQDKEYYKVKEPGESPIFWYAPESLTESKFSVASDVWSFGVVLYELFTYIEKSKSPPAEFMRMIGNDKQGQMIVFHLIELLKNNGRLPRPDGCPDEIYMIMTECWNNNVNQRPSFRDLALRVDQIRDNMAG

[24] = target: Histone deacetylase 3 (Homo sapiens, UniProt O15379)
[25] = target: Histone deacetylase 5 (Homo sapiens, UniProt Q9UQL6)
[26] = in vitro; details: Sprague-Dawley, rat, plasma
[27] = target: Histone deacetylase 2 (Homo sapiens, UniProt Q92769)
[28] = in vitro; details: Sprague-Dawley, rat, plasma; remark: listed apart in the source
[29] = in vivo; details: Sprague-Dawley, rat, po, 15 mg/kg; remark: listed apart in the source
[30] = target: Activated CDC42 kinase 1 (Homo sapiens) (UniProt Q07912); details: dose 500.0 nM
[31] = in vivo; details: Sprague-Dawley, rat, iv, 3 mg/kg; remark: listed apart in the source
[32] = in vivo; details: Sprague-Dawley, rat, po, 15 mg/kg; remark: listed apart in the source
[33] = in vivo; details: Sprague-Dawley, rat, iv, 3 mg/kg; remark: listed apart in the source
[34] = in vivo; details: Sprague-Dawley, rat, po, 15 mg/kg; remark: listed apart in the source
[35] = target: Polyamine deacetylase HDAC10 (Homo sapiens, UniProt Q969S8)
[36] = rat, in vivo, po, 15 mg/kg, 24 h
[37] = target: Tyrosine-protein kinase JAK3 (Homo sapiens, UniProt P52333)
[38] = target: Histone deacetylase 11 (Homo sapiens, UniProt Q96DB2)
[39] = target: T1, Tyrosine-protein kinase JAK1; details: dose 500.0 nM
[40] = target: Histone deacetylase; type: cell-based, Homo sapiens; details: hela
[41] = in vivo; details: Sprague-Dawley, rat, iv, 3 mg/kg; remark: listed apart in the source
[42] = in vivo; details: Sprague-Dawley, rat, iv, 3 mg/kg; remark: listed apart in the source
[43] = target: T2, Tyrosine-protein kinase JAK2

## Cc1cnc(Nc2ccc(OCCCCCCC(=O)NO)c(Br)c2)nc1Nc1cccc(S(=O)(=O)NC(C)(C)C)c1
[1]
  pIC50: 4.92
[2]
  pIC50: 5.16
[3]
  pIC50: 5.41
[4]
  pIC50: 5.68
[5]
  pIC50: 6.14
[6]
  pIC50: 5.67
[7]
  pIC50: 4.92

## Cc1cnc(Nc2ccc(OCCCCCCCC(=O)NO)cc2)nc1Nc1cccc(S(=O)(=O)NC(C)(C)C)c1
[1]
  pIC50: 5.19
[2]
  pIC50: 5.04
[3]
  pIC50: 5.31
[4]
  pIC50: 5.15
[5]
  pIC50: 5.78
[6]
  pIC50: 5.53
[7]
  pIC50: 4.96

## Cc1cnc(Nc2ccc(OCCCCCCC(=O)NO)cc2)nc1Nc1cccc(S(=O)(=O)NC(C)(C)C)c1
[8]
  pIC50: < 5.00
[9]
  pIC50: 6.38
[10]
  CL/F at 24 h: 76 mL/min/kg
[11]
  bioavailability at 24 h: 22.7%
[12]
  pIC50: < 5.00
[13]
  pIC50: 7.57
[14]
  half-life at 24 h: 2.08 h
[15]
  pIC50: 8.35
[16]
  clearance at 24 h: 76.2 mL/min/kg
[17]
  inhibition: > 95%
[18]
  pIC50: < 5.00
[19]
  pIC50: < 5.00
[20]
  inhibition: 70%
[21]
  pIC50: 9.47
[22]
  Cmax at 24 h: 93.3 ng/mL
[23]
  inhibition: > 95%
[1]
  pIC50: 5.59
[24]
  pIC50: 7.23
[2]
  pIC50: 5.74
[25]
  pIC50: < 5.00
[3]
  pIC50: 5.60
[26]
  AUC(0-t) at 22 h: 217000 ng·h/mL
[27]
  pIC50: 6.52
[28]
  half-life at 22 h: 11.1 h
[4]
  pIC50: 5.73
[29]
  Tmax at 24 h: 2.91 h
[30]
  inhibition: 70%
[31]
  half-life at 24 h: 7.68 min
[5]
  pIC50: 6.48
[32]
  MRT at 24 h: 6.02 h
[33]
  AUC(0-t) at 24 h: 656 ng·h/mL
[34]
  AUC(0-t) at 24 h: 745 ng·h/mL
[35]
  pIC50: 6.94
[36]
  Vd: 13.708 L/kg
[37]
  pIC50: 6.23
[6]
  pIC50: 6.14
[7]
  pIC50: 5.54
[38]
  pIC50: 6.14
[39]
  inhibition: 80%
[40]
  IC50: 0.17 nM
[41]
  MRT at 24 h: 0.185 h
[42]
  Vd at 24 h: 0.845 L/kg

## COc1cc(Nc2ncc(C)c(Nc3cccc(S(=O)(=O)NC(C)(C)C)c3)n2)ccc1OCCCCCCC(=O)NO
[1]
  pIC50: 5.36
[2]
  pIC50: 5.33
[3]
  pIC50: 5.44
[4]
  pIC50: 5.26
[5]
  pIC50: 5.78
[6]
  pIC50: 5.83
[7]
  pIC50: 5.14

## Cc1cnc(Nc2ccc(OCCCC(=O)NO)cc2)nc1Nc1cccc(S(=O)(=O)NC(C)(C)C)c1
[43]
  pIC50: 7.91

## Cc1cnc(Nc2ccc(OCCCCCC(=O)NO)c(C(F)(F)F)c2)nc1Nc1cccc(S(=O)(=O)NC(C)(C)C)c1
[1]
  pIC50: 5.16
[2]
  pIC50: 5.53
[3]
  pIC50: 5.54
[4]
  pIC50: 5.46
[5]
  pIC50: 5.61
[6]
  pIC50: 5.54
[7]
  pIC50: 5.29

## Cc1cnc(Nc2ccc(OCCCCCCC(=O)NO)c(Cl)c2)nc1Nc1cccc(S(=O)(=O)NC(C)(C)C)c1
[1]
  pIC50: 5.15
[2]
  pIC50: 5.22
[3]
  pIC50: 5.39
[4]
  pIC50: 5.33
[5]
  pIC50: 6.09
[6]
  pIC50: 5.84
[7]
  pIC50: 4.94

## Cc1cnc(Nc2ccc(OCCCCCCC(=O)NO)c(F)c2)nc1Nc1cccc(S(=O)(=O)NC(C)(C)C)c1
[8]
  pIC50: < 5.00
[9]
  pIC50: 6.11
[10]
  CL/F at 24 h: 98.3 mL/min/kg
[11]
  bioavailability at 24 h: 21.6%
[12]
  pIC50: < 5.00
[13]
  pIC50: 7.39
[14]
  half-life at 24 h: 1.81 h
[15]
  pIC50: 8.16
[16]
  clearance at 24 h: 98.3 mL/min/kg
[17]
  inhibition: 80%
[18]
  pIC50: < 5.00
[19]
  pIC50: < 5.00
[20]
  inhibition: 80%
[21]
  pIC50: 9.37
[22]
  Cmax at 24 h: 79.1 ng/mL
[1]
  pIC50: 5.47
[24]
  pIC50: 7.13
[2]
  pIC50: 5.70
[25]
  pIC50: < 5.00
[3]
  pIC50: 5.52
[26]
  AUC(0-t) at 22 h: 169000 ng·h/mL
[27]
  pIC50: 6.52
[28]
  half-life at 22 h: 8.49 h
[4]
  pIC50: 5.91
[29]
  Tmax at 24 h: 2.55 h
[30]
  inhibition: 70%
[31]
  half-life at 24 h: 6.72 min
[5]
  pIC50: 6.62
[32]
  MRT at 24 h: 5.11 h
[33]
  AUC(0-t) at 24 h: 508 ng·h/mL
[34]
  AUC(0-t) at 24 h: 549 ng·h/mL
[35]
  pIC50: 6.90
[36]
  Vd: 15.411 L/kg
[37]
  pIC50: 6.02
[6]
  pIC50: 5.90
[7]
  pIC50: 5.49
[38]
  pIC50: 6.03
[39]
  inhibition: 80%
[40]
  IC50: 0.2 nM
[41]
  MRT at 24 h: 0.161 h
[42]
  Vd at 24 h: 0.951 L/kg

## Cc1cc(Nc2ncc(C)c(Nc3cccc(S(=O)(=O)NC(C)(C)C)c3)n2)ccc1OCCCCCCC(=O)NO
[1]
  pIC50: 5.31
[2]
  pIC50: 5.05
[3]
  pIC50: 5.31
[4]
  pIC50: 5.05
[5]
  pIC50: 5.76
[6]
  pIC50: 5.51
[7]
  pIC50: < 4.30

## Cc1cnc(Nc2ccc(OCC(=O)NO)cc2)nc1Nc1cccc(S(=O)(=O)NC(C)(C)C)c1
[43]
  pIC50: 8.36

## Cc1cnc(Nc2ccc(OCCCCCC(=O)NO)cc2)nc1Nc1cccc(S(=O)(=O)NC(C)(C)C)c1
[1]
  pIC50: 5.59
[2]
  pIC50: 5.49
[3]
  pIC50: 5.56
[4]
  pIC50: 5.37
[5]
  pIC50: 5.60
[6]
  pIC50: 5.63
[7]
  pIC50: 5.40

## Cc1cnc(Nc2ccc(OCCCCCCC(=O)NO)c(C(F)(F)F)c2)nc1Nc1cccc(S(=O)(=O)NC(C)(C)C)c1
[1]
  pIC50: 4.96
[2]
  pIC50: 5.06
[3]
  pIC50: 5.31
[4]
  pIC50: 5.23
[5]
  pIC50: 5.97
[6]
  pIC50: 5.65
[7]
  pIC50: 5.13

## Cc1cnc(Nc2ccc(OCCCCCC(=O)NO)c(Cl)c2)nc1Nc1cccc(S(=O)(=O)NC(C)(C)C)c1
[1]
  pIC50: 5.17
[2]
  pIC50: 5.32
[3]
  pIC50: 5.20
[4]
  pIC50: 5.36
[5]
  pIC50: 5.90
[6]
  pIC50: 5.69
[7]
  pIC50: 5.14
